Measured values from publication PMC4838876, “Multivalent display of minimal Clostridium difficile glycan epitopes mimics antigenic properties of larger glycans” (Nature Communications, 2016).

Tested on: mAb 2C5
Assay: Interaction Map (IM) analysis based on SPR traces
Format: binding, mouse
Text: Pentasaccharide 1 was bound with about 100-fold lower KD values than the minimal glycan epitope 3. This stronger binding may have been due to avidity (re-binding) effects, as 3 is contained twice in 1, or by higher affinity. To address this question, we compared the binding properties by IM analysis based on SPR traces. […] Both antigens interacted with mAb 2C5 in a 1:1-like manner, indicated by one dominant peak in the IM plots. Therefore, stronger antibody binding to 1 was due to increased affinity, not avidity, which would be characterized by differences in off-rates and additional peaks.
Figure 7 IM and thermodynamic analysis of glycan–mAb interactions and conformation of 1. (a) IM analysis. The heat maps represent on- and off-rates of mAb 2C5 to 1 (upper) and 3 (lower). (b) Thermograms acquired using 7 μM of mAb 2C5 and titrating 250 μM of 1 (left) or 3 mM of 3 (right) at 25 °C. Thermodynamic parameters were inferred by nonlinear least-square fits of the data points. (c) Summary of thermodynamic parameters for 1 and 3 interacting with mAbs 2C5 and 10A1. Bars represent mean±s.e.m. of two independent measurements. See Supplementary Fig. 6 for details. (d) One-dimensional proton NMR spectrum, and 2D zTOCSY and NOE spectroscopy (NOESY) NMR spectra of 1 showing the coupled protons to the anomeric protons of the five residues with numbering according to the structure shown in e. […]

| SMILES | on-rate |
| --- | --- |
| C[C@@H]1O[C@@H](O[C@@H]2[C@@H](O)[C@H](O[C@H]3[C@H](O[C@@H]4O[C@@H](C)[C@H](O)[C@@H](O)[C@H]4O)[C@@H](O)[C@@H](O[C@H]4[C@@H](OCCCCCN)O[C@H](CO)[C@@H](O)[C@@H]4O)O[C@@H]3CO)O[C@H](CO)[C@H]2O)[C@H](O)[C@H](O)[C@H]1O [Compound 1] | 126,000 M^−1 s^−1 |
| C[C@@H]1O[C@@H](O[C@@H]2[C@@H](O)[C@H](OCCCCCN)O[C@H](CO)[C@H]2O)[C@H](O)[C@H](O)[C@H]1O [Compound 3, Rha-(1→3)-Glc] | 250 M⁻¹ s⁻¹ |
